Experimental data published in patent US10167288B2, “Substituted pyrazolylpyrazole derivative and use of same as herbicide” (KYOYU AGRI CO., LTD., priority 2015, dated 2019).

What was measured:
Assay type in all cases: in vivo
Galinsoga parviflora = assay: Weed foliar treatment test (Test Example 4); details: 10 g a.i./10 a; foliar spray at 4.0 to 5.0 leaf stage of Digitaria ciliaris (plant height 10 cm to 15 cm); 20 days, 25° C.
Protocol: (§1) 4. Weed Foliar Treatment Test
(§2) Field soil was filled into a 1/4500 are pot followed by seeding with Digitaria ciliaris and Galinsoga parviflora, covering with soil and cultivating in a glass greenhouse at an average atmospheric temperature of 25° C.
(§3) Wettable powders of Target Compound (I) shown in Table 1 prepared in compliance with the preparation examples were diluted with water to the prescribed amount of chemical and uniformly sprayed onto the weeds using 100 liters of sprayed water per 10 are when Digitaria ciliaris had grown to the 4.0 to 5.0 leaf stage (plant height: 10 cm to 15 cm).
(§4) After treating for 20 days in a glass greenhouse at an average atmospheric temperature of 25° C., the herbicidal efficacy thereof was investigated.
(§5) Evaluation of herbicidal efficacy was carried out in the same manner as the above-mentioned Test Example 1.

Digitaria ciliaris [1] = assay: Weed foliar treatment test (Test Example 4); details: 10 g a.i./10 a; foliar spray at 4.0 to 5.0 leaf stage of Digitaria ciliaris (plant height 10 cm to 15 cm); 20 days, 25° C.
Protocol: as §1, §2, §3, §4, §5

Amaranthus retroflexus [2] = assay: Farming soil treatment test; details: soil surface spray prior to weed growth, 30 days, 30° C.
Protocol: (§6) 2. Farming Soil Treatment Test Field soil was filled into a 1/6000 are pot followed by seeding with Digitaria ciliaris Chenopodium album and Amaranthus retroflexus and covering with soil. Wettable powders of compounds of formula (I) shown in Table 1 prepared in compliance with the preparation examples were diluted with water to the prescribed amount of chemical and uniformly sprayed onto each soil surface layer using 100 liters of sprayed water per 10 are prior to weed growth following seeding. After treating for 30 days in a glass greenhouse at an average atmospheric temperature of 30° C., the herbicidal efficacy thereof was investigated. Evaluation of herbicidal efficacy was carried out in the same manner as the above-mentioned Test Example 1.

Digitaria ciliaris [3] = assay: Farming soil treatment test; details: soil surface spray prior to weed growth, 30 days, 30° C.
Protocol: as §6

Chenopodium album [4] = assay: Farming soil treatment test; details: soil surface spray prior to weed growth, 30 days, 30° C.
Protocol: as §6

Echinochloa crus-galli = assay: Paddy herbicidal activity test; details: dropped into paddy water at 3.5 leaf stage of Echinochloa crus-galli, 30 days, 30° C., vs untreated group
Protocol: (§7) 1. Paddy Herbicidal Activity Test
(§8) Rice paddy soil was filled into a 1/10000 are pot followed by the addition of suitable amounts of water and chemical fertilizer, kneading, seeding with Echinochloa crus-galli, Monochoria vaginalis and Scirpus juncoides and maintaining in an irrigated state at a water depth of 3 cm.
(§9) Wettable powders of Target Compound (I) shown in Table 1 prepared in compliance with the preparation examples were diluted with a suitable amount of water, rice plants in the 2.0 leaf stage were transplanted during 3.5 leaf stage of Echinochloa crus-galli, and treated by dropping in chemical in the prescribed amount per 10 are using a pipette.
(§10) After treating for 30 days in a glass greenhouse at an average atmospheric temperature of 30° C., the herbicidal efficacy thereof was investigated.
(§11) Evaluation of herbicidal efficacy was carried out by comparing growth inhibition rate (%) with an untreated group, while evaluation of phytotoxicity was carried out by comparing growth inhibition rate (%) with the state of a complete eradication group, and were evaluated at 11 levels indicated below.

Monochoria vaginalis = assay: Paddy herbicidal activity test; details: dropped into paddy water at 3.5 leaf stage of Echinochloa crus-galli, 30 days, 30° C., vs untreated group
Protocol: as §7, §8, §9, §10, §11

Scirpus juncoides = assay: Paddy herbicidal activity test; details: dropped into paddy water at 3.5 leaf stage of Echinochloa crus-galli, 30 days, 30° C., vs untreated group
Protocol: as §7, §8, §9, §10, §11

Oryza sativa = assay: Paddy herbicidal activity test, phytotoxicity to transplanted rice; details: rice transplanted in the 2.0 leaf stage, 30 days, 30° C., vs complete eradication group
Protocol: as §7, §8, §9, §10, §11

Amaranthus retroflexus [5] = assay: Weed foliar treatment test (Test Example 3); details: foliar spray at 1.0 to 2.0 leaf stage of Digitaria ciliaris, 3 weeks, 25° C.
Protocol: (§12) 3. Weed Foliar Treatment Test
(§13) Soil was filled into a 1/6000 are pot followed by seeding with Digitaria ciliaris, Chenopodium album and Amaranthus retroflexus, covering with soil, and cultivating in a glass greenhouse at an average atmospheric temperature of 25° C.
(§14) Wettable powders of Target Compound (I) shown in Table 1 prepared in compliance with the preparation examples were diluted with water to the prescribed amount of chemical and uniformly sprayed onto the weeds using 150 liters of sprayed water per 10 are when Digitaria ciliaris had grown to the 1.0 to 2.0 leaf stage.
(§15) After treating for 3 weeks in a glass greenhouse at an average atmospheric temperature of 25° C., the herbicidal efficacy thereof was investigated.
as §5

Digitaria ciliaris [6] = assay: Weed foliar treatment test (Test Example 3); details: foliar spray at 1.0 to 2.0 leaf stage of Digitaria ciliaris, 3 weeks, 25° C.
Protocol: as §12, §13, §14, §15, §5

Chenopodium album [7] = assay: Weed foliar treatment test (Test Example 3); details: foliar spray at 1.0 to 2.0 leaf stage of Digitaria ciliaris, 3 weeks, 25° C.
Protocol: as §12, §13, §14, §15, §5

Compound | herbicidal efficacy, Galinsoga parviflora (Galinsoga parviflora) | herbicidal efficacy, Digitaria ciliaris (Digitaria ciliaris [1]) | herbicidal efficacy, Amaranthus retroflexus (Amaranthus retroflexus [2]; 5 g a.i./10 a) | herbicidal efficacy, Amaranthus retroflexus (Amaranthus retroflexus [2]; 10 g a.i./10 a) | herbicidal efficacy, Digitaria ciliaris (Digitaria ciliaris [3]; 5 g a.i./10 a) | herbicidal efficacy, Digitaria ciliaris (Digitaria ciliaris [3]; 10 g a.i./10 a) | herbicidal efficacy, Chenopodium album (Chenopodium album [4]; 5 g a.i./10 a) | herbicidal efficacy, Chenopodium album (Chenopodium album [4]; 10 g a.i./10 a) | herbicidal efficacy, Echinochloa crus-galli (Echinochloa crus-galli; 1 g a.i./10 a) | herbicidal efficacy, Echinochloa crus-galli (Echinochloa crus-galli; 5 g a.i./10 a) | herbicidal efficacy, Monochoria vaginalis (Monochoria vaginalis; 1 g a.i./10 a) | herbicidal efficacy, Monochoria vaginalis (Monochoria vaginalis; 5 g a.i./10 a) | herbicidal efficacy, Scirpus juncoides (Scirpus juncoides; 1 g a.i./10 a) | herbicidal efficacy, Scirpus juncoides (Scirpus juncoides; 5 g a.i./10 a) | phytotoxicity, Oryza sativa (Oryza sativa; 1 g a.i./10 a) | phytotoxicity, Oryza sativa (Oryza sativa; 5 g a.i./10 a) | herbicidal efficacy, Amaranthus retroflexus (Amaranthus retroflexus [5]; 5 g a.i./10 a) | herbicidal efficacy, Amaranthus retroflexus (Amaranthus retroflexus [5]; 10 g a.i./10 a) | herbicidal efficacy, Digitaria ciliaris (Digitaria ciliaris [6]; 5 g a.i./10 a) | herbicidal efficacy, Digitaria ciliaris (Digitaria ciliaris [6]; 10 g a.i./10 a) | other results
CCSC(=O)Nc1c(C#N)cnn1-c1nn2c(c1Cl)CCCC2 [Compound 11] | 10 (100%) | 10 (100%) |  |  |  |  |  |  |  |  |  |  |  |  |  |  |  |  |  |  | 
CCOC(=O)Nc1c([N+](=O)[O-])cnn1-c1nn2c(c1Cl)CCCC2 [Control agent 2.28, reference compound] | 2 (20% to less than 30%) | 1 (10% to less than 20%) | 3 (30% to less than 40%) | 5 (50% to less than 60%) | 1 (10% to less than 20%) | 2 (20% to less than 30%) | 4 (40% to less than 50%) | 5 (50% to less than 60%) | 1 (10% to less than 20%) | 2 (20% to less than 30%) | 3 (30% to less than 40%) | 4 (40% to less than 50%) | 1 (10% to less than 20%) | 2 (20% to less than 30%) | 0 (0% to less than 10% (growth inhibition rate)) | 1 (10% to less than 20%) | 3 (30% to less than 40%) | 6 (60% to less than 70%) | 2 (20% to less than 30%) | 4 (40% to less than 50%) | herbicidal efficacy, Chenopodium album (Chenopodium album [7]; 5 g a.i./10 a): 6 (60% to less than 70%); herbicidal efficacy, Chenopodium album (Chenopodium album [7]; 10 g a.i./10 a): 7 (70% to less than 80%)
CCCOC(=O)Nc1c(C#N)cnn1-c1nn2c(c1Cl)CCCC2 [Compound 4] | 10 (100%) | 10 (100%) |  |  |  |  |  |  |  |  |  |  |  |  |  |  |  |  |  |  | 
COC(=O)Nc1c(C#N)cnn1-c1nn2c(c1Cl)CCC2 [Compound 3] | 10 (100%) | 10 (100%) | 10 (100%) | 10 (100%) | 10 (100%) | 10 (100%) | 9 (90% to less than 100%) | 10 (100%) | 10 (100%) | 10 (100%) | 10 (100%) | 10 (100%) | 9 (90% to less than 100%) | 10 (100%) | 1 (10% to less than 20%) | 1 (10% to less than 20%) | 10 (100%) | 10 (100%) | 10 (100%) | 10 (100%) | herbicidal efficacy, Chenopodium album (Chenopodium album [7]; 5 g a.i./10 a): 10 (100%); herbicidal efficacy, Chenopodium album (Chenopodium album [7]; 10 g a.i./10 a): 10 (100%)
CC(C)COC(=O)Nc1c(C#N)cnn1-c1nn2c(c1Cl)CCCC2 [Compound 10] | 10 (100%) | 10 (100%) |  |  |  |  |  |  |  |  |  |  |  |  |  |  |  |  |  |  | 
COC(=O)Nc1c(C#N)cnn1-c1nn2c(c1Cl)CCCC2 [Compound 7] | 10 (100%) | 10 (100%) | 10 (100%) | 10 (100%) | 10 (100%) | 10 (100%) | 9 (90% to less than 100%) | 10 (100%) | 10 (100%) | 10 (100%) | 10 (100%) | 10 (100%) | 9 (90% to less than 100%) | 10 (100%) | 1 (10% to less than 20%) | 1 (10% to less than 20%) | 10 (100%) | 10 (100%) | 10 (100%) | 10 (100%) | herbicidal efficacy, Chenopodium album (Chenopodium album [7]; 5 g a.i./10 a): 10 (100%); herbicidal efficacy, Chenopodium album (Chenopodium album [7]; 10 g a.i./10 a): 10 (100%)
CCOC(=O)Nc1c(C#N)cnn1-c1nn2c(c1Cl)CCCC2 [Compound 1, Ethyl N-(1-(3-chloro-4,5,6,7-tetrahydropyrazolo[1,5-a]pyridin-2-yl)-4-cyanopyrazol-5-yl) Carbamate] | 10 (100%) | 10 (100%) | 10 (100%) | 10 (100%) | 10 (100%) | 10 (100%) | 10 (100%) | 10 (100%) | 10 (100%) | 10 (100%) | 10 (100%) | 10 (100%) | 10 (100%) | 10 (100%) | 1 (10% to less than 20%) | 1 (10% to less than 20%) | 10 (100%) | 10 (100%) | 10 (100%) | 10 (100%) | herbicidal efficacy, Chenopodium album (Chenopodium album [7]; 5 g a.i./10 a): 10 (100%); herbicidal efficacy, Chenopodium album (Chenopodium album [7]; 10 g a.i./10 a): 10 (100%)
